Experimental data taken from EPA's CvTdb concentration-time database.

Experiments:
Test in all cases: concentration in plasma after dosing
[1] = tested on: Rat; settings: dosed: Anthraquinone, 100 mg/kg, oral, Male, F344
[2] = tested on: Rat; settings: dosed: Anthraquinone, 400 mg/kg, oral, Male, F344
[3] = tested on: Rat; settings: dosed: Anthraquinone, 400 mg/kg, oral, Male, F344; remark: listed apart in the source
[4] = tested on: Rat; settings: dosed: Anthraquinone, 40 mg/kg, oral, Male, Harlan Sprague Dawley
[5] = tested on: Rat; settings: dosed: Anthraquinone, 100 mg/kg, oral, Male, F344; remark: listed apart in the source
[6] = tested on: Rat; settings: dosed: Anthraquinone, 100 mg/kg, oral, Male, F344; remark: listed apart in the source
[7] = tested on: Rat; settings: dosed: Anthraquinone, 100 mg/kg, oral, Male, F344; remark: listed apart in the source
[8] = tested on: Rat; settings: dosed: Anthraquinone, 40 mg/kg, oral, Female, Harlan Sprague Dawley
[9] = tested on: Rat; settings: dosed: Anthraquinone, oral
[10] = tested on: Rat; settings: dosed: Anthraquinone, 40 mg/kg, oral, Male, Harlan Sprague Dawley; remark: listed apart in the source
[11] = tested on: Rat; settings: dosed: Anthraquinone, 40 mg/kg, oral, Female, Harlan Sprague Dawley; remark: listed apart in the source
[12] = tested on: Rat; settings: dosed: Anthraquinone, 100 mg/kg, oral, Female, F344
[13] = tested on: Rat; settings: dosed: Anthraquinone, 40 mg/kg, oral, Male, Harlan Sprague Dawley; remark: listed apart in the source
[14] = tested on: Rat; settings: dosed: Anthraquinone, 40 mg/kg, oral, Female, Harlan Sprague Dawley; remark: listed apart in the source
[15] = tested on: Rat; settings: dosed: Anthraquinone, 400 mg/kg, oral, Male, F344; remark: listed apart in the source
[16] = tested on: Rat; settings: dosed: Anthraquinone, 100 mg/kg, oral, Female, F344; remark: listed apart in the source
[17] = tested on: Rat; settings: dosed: Anthraquinone, 100 mg/kg, oral, Male, F344; remark: listed apart in the source
[18] = tested on: Rat; settings: dosed: Anthraquinone, 40 mg/kg, oral, Female, Harlan Sprague Dawley; remark: listed apart in the source
[19] = tested on: Rat; settings: dosed: Anthraquinone, 40 mg/kg, oral, Male, Harlan Sprague Dawley; remark: listed apart in the source
[20] = tested on: Rat; settings: 24 h; dosed: Anthraquinone; 40 mg/kg; oral; Male; F344
[21] = tested on: Rat; settings: 24 h; dosed: Anthraquinone; 100 mg/kg; oral; Male; F344
[22] = tested on: Rat; settings: dosed: Anthraquinone, 400 mg/kg, oral, Male, F344; remark: listed apart in the source
[23] = tested on: Rat; settings: dosed: Anthraquinone, 400 mg/kg, oral, Male, F344; remark: listed apart in the source
[24] = tested on: Rat; settings: 24 h; dosed: Anthraquinone; 100 mg/kg; oral; Male; F344; remark: listed apart in the source
[25] = tested on: Rat; settings: dosed: Anthraquinone, 100 mg/kg, oral, Female, Harlan Sprague Dawley
[26] = tested on: Rat; settings: dosed: Anthraquinone, 40 mg/kg, oral, Female, Harlan Sprague Dawley; remark: listed apart in the source
[27] = tested on: Rat; settings: dosed: Anthraquinone, 100 mg/kg, oral, Male, F344; remark: listed apart in the source
[28] = tested on: Rat; settings: dosed: Anthraquinone, 40 mg/kg, oral, Female, Harlan Sprague Dawley; remark: listed apart in the source
[29] = tested on: Rat; settings: dosed: Anthraquinone, 100 mg/kg, oral, Male, F344; remark: listed apart in the source
[30] = tested on: Rat; settings: dosed: Anthraquinone, 100 mg/kg, oral, Male, F344; remark: listed apart in the source
[31] = tested on: Rat; settings: dosed: Anthraquinone, 40 mg/kg, oral, Female, F344
[32] = tested on: Rat; settings: dosed: Anthraquinone, 100 mg/kg, oral, Female, Harlan Sprague Dawley; remark: listed apart in the source
[33] = tested on: Rat; settings: dosed: Anthraquinone, 100 mg/kg, oral, Female, Harlan Sprague Dawley; remark: listed apart in the source
[34] = tested on: Rat; settings: dosed: Anthraquinone, 40 mg/kg, oral, Female, F344; remark: listed apart in the source
[35] = tested on: Rat; settings: dosed: Anthraquinone, 100 mg/kg, oral, Female, Harlan Sprague Dawley; remark: listed apart in the source
[36] = tested on: Rat; settings: dosed: Anthraquinone, 100 mg/kg, oral, Male, F344; remark: listed apart in the source

O=C1c2ccccc2C(=O)c2ccccc21 [Anthraquinone]
Settings | concentration in plasma [ng/mL]
[1], 0.5 h | 27
[1], 24 h | 349
[2], 0.5 h | 163
[2], 24 h | 1970
[3], 2 h | 352
[3], 12 h | 2500
[4], 4 h | 131
[4], 8 h | 293
[5], 1 h | 55
[5], 18 h | 429
[6], 2 h | 120
[6], 12 h | 671
[7], 1 h | 72
[7], 18 h | 596
[8], 1 h | 65
[8], 18 h | 87
[10], 2 h | 99
[10], 12 h | 242
[11], 4 h | 111
[11], 8 h | 255
[12], 1 h | 63
[12], 18 h | 469
[13], 4 h | 117
[13], 8 h | 241
[14], 1 h | 57
[14], 18 h | 124
[15], 0.5 h | 148
[15], 24 h | 2120
[16], 1 h | 61
[16], 18 h | 538
[17], 0.5 h | 28
[17], 24 h | 197
[18], 2 h | 90
[18], 12 h | 224
[19], 2 h | 101
[19], 12 h | 255
[22], 1 h | 345
[22], 18 h | 2880
[23], 1 h | 129
[23], 18 h | 2320
[25], 4 h | 262
[25], 8 h | 595
[26], 2 h | 128
[26], 12 h | 238
[27], 4 h | 205
[27], 8 h | 522
[28], 4 h | 136
[28], 8 h | 280
[29], 0.5 h | 41
[29], 24 h | 433
[30], 4 h | 323
[30], 8 h | 758
[31], 1 h | 36
[31], 18 h | 157
[32], 2 h | 210
[32], 12 h | 880
[33], 4 h | 255
[33], 8 h | 992
[34], 1 h | 61
[34], 18 h | 131
[35], 2 h | 192
[35], 12 h | 818
[36], 2 h | 233
[36], 12 h | 719

concentration in plasma [ng/mL], [9]
Settings | 0.5 h | 1 h | 2 h | 4 h | 8 h | 12 h | 18 h | 24 h
40 mg/kg, Female, F344 | – | 30 | – | – | – | – | 191 | –
40 mg/kg, Female, Harlan Sprague Dawley | – | 61 | 154 | 149 | 249 | 224 | 103 | 65
40 mg/kg, Male, F344 | – | – | – | – | – | – | – | 26
40 mg/kg, Male, Harlan Sprague Dawley | – | – | 87 | 101 | 203 | 204 | – | –
100 mg/kg, Female, F344 | – | 66 | – | – | – | – | 652 | –
100 mg/kg, Female, Harlan Sprague Dawley | – | – | 127 | 232 | 721 | 610 | – | –
100 mg/kg, Male, F344 | – | 63 | 157 | 259 | 611 | 696 | 415 | 261
400 mg/kg, Male, F344 | 106 | 235 | 285 | – | – | 2590 | 2700 | 1940

Settings | concentration in plasma [ng/mL]
[20] | 66
[21] | 259
[24] | 210
